# Results: the supplement of paper PMC10307832
# Assays:
# Experiment in all cases: relative viability (nuclei count vs DMSO), 5 days (fraction); higher = more cells survive
# BI-D1870 + OSI-027 = compound: CC(C)CCN1c2nc(Nc3cc(F)c(O)c(F)c3)ncc2N(C)C(=O)C1C [BI-D1870] + COc1cccc2cc(-c3nc([C@H]4CC[C@H](C(=O)O)CC4)n4ncnc(N)c34)[nH]c12 [OSI-027] (partner 0.5 µM)
# How it was run: (§1)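 Lung cancer cell lines were seeded in 1536-well plates and dosed by pin tool the next day, with either a single drug or a fixed anchor-drug dose combined with five library-drug doses (not always all listed) spaced in √10 steps. Five days later, one step fixed the cells and stained their nuclei (final 0.05% Triton X-100, 1% formaldehyde, 1 ug/ml Hoechst), and nuclei were counted on 4× images. Relative viability is the nuclei count in treated wells divided by the count in vehicle wells, and each value is the median of duplicate plates.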
# BI-D1870 + Lapatinib = compound: CC(C)CCN1c2nc(Nc3cc(F)c(O)c(F)c3)ncc2N(C)C(=O)C1C [BI-D1870] + CS(=O)(=O)CCNCc1ccc(-c2ccc3ncnc(Nc4ccc(OCc5cccc(F)c5)c(Cl)c4)c3c2)o1 [Lapatinib] (partner 2 µM)
# How it was run: as §1
# BI-D1870 + Vorinostat = compound: CC(C)CCN1c2nc(Nc3cc(F)c(O)c(F)c3)ncc2N(C)C(=O)C1C [BI-D1870] + O=C(CCCCCCC(=O)Nc1ccccc1)NO [Vorinostat] (partner 1 µM)
# How it was run: as §1
# BI-D1870 + Pemetrexed = compound: CC(C)CCN1c2nc(Nc3cc(F)c(O)c(F)c3)ncc2N(C)C(=O)C1C [BI-D1870] + Nc1nc2[nH]cc(CCc3ccc(C(=O)N[C@@H](CCC(=O)O)C(=O)O)cc3)c2c(=O)[nH]1 [Pemetrexed] (partner 0.2 µM)
# How it was run: as §1
cell line,measurement,setting,value
UMC-11,relative viability,BI-D1870 + OSI-027; first compound 0.04 µM,0.519
same,relative viability,BI-D1870 + OSI-027; first compound 0.1265 µM,0.48
same,relative viability,BI-D1870 + OSI-027; first compound 0.4 µM,0.479
same,relative viability,BI-D1870 + OSI-027; first compound 1.265 µM,0.406
same,relative viability,BI-D1870 + OSI-027; first compound 4 µM,0.16
same,relative viability,BI-D1870 + Lapatinib; first compound 0.04 µM,1.12
same,relative viability,BI-D1870 + Lapatinib; first compound 0.1265 µM,0.858
same,relative viability,BI-D1870 + Lapatinib; first compound 0.4 µM,0.97
same,relative viability,BI-D1870 + Lapatinib; first compound 1.265 µM,1.08
same,relative viability,BI-D1870 + Lapatinib; first compound 4 µM,0.637
same,relative viability,BI-D1870 + Vorinostat; first compound 0.04 µM,0.394
same,relative viability,BI-D1870 + Vorinostat; first compound 0.1265 µM,0.377
same,relative viability,BI-D1870 + Vorinostat; first compound 0.4 µM,0.337
same,relative viability,BI-D1870 + Vorinostat; first compound 1.265 µM,0.329
same,relative viability,BI-D1870 + Vorinostat; first compound 4 µM,0.128
same,relative viability,BI-D1870 + Pemetrexed; first compound 0.04 µM,0.812
same,relative viability,BI-D1870 + Pemetrexed; first compound 0.1265 µM,0.751
same,relative viability,BI-D1870 + Pemetrexed; first compound 0.4 µM,0.777
same,relative viability,BI-D1870 + Pemetrexed; first compound 1.265 µM,0.779
same,relative viability,BI-D1870 + Pemetrexed; first compound 4 µM,0.277
